The term EC50 denotes the concentration giving half of the maximal effect.

The record followed here is patent US12139520B2 (priority 2020, dated 2024).

Bridge positions count the residues as written; N and C are the ends. Square brackets hold non-standard residues; d marks the D form. Peptide text beside a SMILES is read from it. Hyp = O=C(O)[C@@H]1C[C@@H](O)CN1

Data set [1] has as its target T1, hAMY3 receptor (Homo sapiens, UniProt O60896+P30988).
T1 sequence (P30988 25-474): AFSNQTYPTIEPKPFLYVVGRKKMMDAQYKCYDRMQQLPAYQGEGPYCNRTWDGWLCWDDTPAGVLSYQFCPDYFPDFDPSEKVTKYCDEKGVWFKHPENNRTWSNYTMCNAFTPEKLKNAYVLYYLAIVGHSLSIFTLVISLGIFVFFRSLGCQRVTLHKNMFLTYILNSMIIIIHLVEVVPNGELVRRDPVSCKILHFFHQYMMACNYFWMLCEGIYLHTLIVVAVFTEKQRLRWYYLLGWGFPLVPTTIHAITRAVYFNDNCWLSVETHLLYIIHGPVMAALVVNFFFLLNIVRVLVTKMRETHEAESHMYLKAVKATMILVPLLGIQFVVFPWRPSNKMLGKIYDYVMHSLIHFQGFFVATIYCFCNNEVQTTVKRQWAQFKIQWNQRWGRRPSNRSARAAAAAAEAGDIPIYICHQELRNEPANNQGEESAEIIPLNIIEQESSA
T1 sequence (O60896 24-148 partner): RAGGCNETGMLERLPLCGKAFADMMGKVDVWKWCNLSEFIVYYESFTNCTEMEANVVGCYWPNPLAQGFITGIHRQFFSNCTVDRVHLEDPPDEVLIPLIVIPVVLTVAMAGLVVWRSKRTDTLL
Briefly: cAMP assay for in vitro receptor activation, hAMY3-R. The data set is classed as cell-based. Conditions: cAMP assay, hAMY3 receptor; read-out: hAMY3R EC50. A digest of the protocol:
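Read-out is TR-FRET cAMP signal, recorded one hour after reagent addition, following 30 min room-temperature stimulation of stable hAMY3 cells with graded compound doses in casein/IBMX (0.5 mM) buffer.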
A general note: cAMP levels reflect the balance of adenylyl cyclase and phosphodiesterase activity.

A short description of data set [2]: Physical stability of peptide analogues (Thioflavin T fibrillation). The data set is classed as physicochemical. Conditions: maximum ThT signal normalized between hAMY maximum and buffer background; 40° C., shaking, four days; pH 7 per table title. The method in brief:
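Samples are stressed at 40 °C for four days, being shaken at 700 rpm before each 10-min fluorescence reading of 4 μM Thioflavin T. Buffers were pH 4 acetate or pH 7 phosphate. Reported values are smoothed maximum ThT signals as a percentage of the hAMY-to-background range.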

`CC[C@H](C)[C@H](NC(=O)[C@H](CC(N)=O)NC(=O)[C@@H](NC(=O)[C@H](CCCNC(=N)N)NC(=O)[C@@H]1CCCN1C(=O)[C@H](C)NC(=O)[C@@H](NC(=O)[C@H](CC(N)=O)NC(=O)[C@H](CC(=O)O)NC(=O)[C@H](CCCCN)NC(=O)[C@H](CC(=O)O)NC(=O)[C@H](CCCCN)NC(=O)[C@H](CC(=O)O)NC(=O)[C@@H](NC(=O)[C@H](Cc1ccccc1)NC(=O)[C@H](CCC(N)=O)NC(=O)[C@H](Cc1ccc(O)cc1)NC(=O)[C@@H](NC(=O)[C@H](CCC(N)=O)NC(=O)[C@H](Cc1c[nH]cn1)NC(=O)[C@H](C)NC(=O)[C@H](CC(C)C)NC(=O)[C@H](CCCNC(=N)N)NC(=O)[C@H](CCC(N)=O)NC(=O)[C@@H](NC(=O)[C@@H](NC(=O)[C@@H]1CSSC[C@H](NC(=O)CN)C(=O)N[C@@H](CCCNC(=N)N)C(=O)N[C@@H]([C@@H](C)O)C(=O)NCC(=O)N[C@@H]([C@@H](C)O)C(=O)N1)[C@@H](C)O)C(C)C)[C@@H](C)CC)[C@@H](C)O)C(C)C)[C@@H](C)O)C(=O)NCC(=O)N1CCC[C@H]1C(=O)N[C@@H](CCC(N)=O)C(=O)NCC(=O)N1C[C@H](O)C[C@H]1C(N)=O` [compound 118] (H-GCRTGTCTVQRLAHQIYQFTDKDKDNVAPRTNIGPQG[Hyp]-NH2; disulfide 2-7; N-terminus assumed): in data set [1], the half-maximal effective concentration (EC50) stood at 0.024 nM. Moreover, in data set [2], the “Max ThT signal (%)” value is 7.400%.

For `CC[C@H](C)[C@H](NC(=O)[C@H](CCC(N)=O)NC(=O)[C@H](Cc1c[nH]cn1)NC(=O)[C@H](C)NC(=O)[C@H](CC(C)C)NC(=O)[C@H](CCCNC(=N)N)NC(=O)[C@H](CCC(N)=O)NC(=O)[C@@H](NC(=O)[C@@H](NC(=O)[C@@H]1CSSC[C@H](NC(=O)CN)C(=O)N[C@@H](CCCNC(=N)N)C(=O)N[C@@H]([C@@H](C)O)C(=O)NCC(=O)N[C@@H]([C@@H](C)O)C(=O)N1)[C@@H](C)O)C(C)C)C(=O)N[C@@H](Cc1ccc(O)cc1)C(=O)N[C@@H](CCC(N)=O)C(=O)N[C@@H](Cc1ccccc1)C(=O)N[C@H](C(=O)N[C@@H](CC(=O)O)C(=O)N[C@@H](CCCCN)C(=O)N[C@@H](CC(=O)O)C(=O)N[C@@H](CCCCN)C(=O)N[C@@H](CC(=O)O)C(=O)N[C@@H](CC(N)=O)C(=O)N[C@H](C(=O)N[C@@H](C)C(=O)N1CCC[C@H]1C(=O)N[C@@H](CCCNC(=N)N)C(=O)N[C@@H](CO)C(=O)N[C@@H](CC(N)=O)C(=O)N[C@H](C(=O)NCC(=O)N1CCC[C@H]1C(=O)N[C@@H](CCC(N)=O)C(=O)NCC(=O)N1C[C@H](O)C[C@H]1C(N)=O)C(C)C)C(C)C)[C@@H](C)O` [compound 121] (H-GCRTGTCTVQRLAHQIYQFTDKDKDNVAPRSNVGPQG[Hyp]-NH2; disulfide 2-7; N-terminus assumed), in data set [1], the EC50 is 0.026 nM. Also, the “Max ThT signal (%)” value in data set [2] turned out to be 1.800%.

`CC[C@H](C)[C@H](NC(=O)[C@H](CCC(N)=O)NC(=O)[C@H](Cc1c[nH]cn1)NC(=O)[C@H](C)NC(=O)[C@H](CC(C)C)NC(=O)[C@H](CCCNC(=N)N)NC(=O)[C@H](CCC(N)=O)NC(=O)[C@@H](NC(=O)[C@@H](NC(=O)[C@@H]1CSSC[C@H](NC(=O)CN)C(=O)N[C@@H](CCCNC(=N)N)C(=O)N[C@@H](Cc2ccccc2)C(=O)NCC(=O)N[C@@H]([C@@H](C)O)C(=O)N1)[C@@H](C)O)C(C)C)C(=O)N[C@@H](Cc1ccc(O)cc1)C(=O)N[C@@H](CCC(N)=O)C(=O)N[C@@H](Cc1ccccc1)C(=O)N[C@H](C(=O)N[C@@H](CC(=O)O)C(=O)N[C@@H](CCCCN)C(=O)N[C@@H](CC(=O)O)C(=O)N[C@@H](CCCCN)C(=O)N[C@@H](CC(=O)O)C(=O)N[C@@H](CC(N)=O)C(=O)N[C@H](C(=O)N[C@@H](C)C(=O)N1CCC[C@H]1C(=O)N[C@@H](CCCNC(=N)N)C(=O)N[C@H](C(=O)N[C@@H](CC(N)=O)C(=O)N[C@H](C(=O)N[C@@H](CO)C(=O)N1CCC[C@H]1C(=O)N[C@@H](CCC(N)=O)C(=O)NCC(=O)N1C[C@H](O)C[C@H]1C(N)=O)C(C)C)[C@@H](C)O)C(C)C)[C@@H](C)O` [compound 125] (H-GCRFGTCTVQRLAHQIYQFTDKDKDNVAPRTNVSPQG[Hyp]-NH2; disulfide 2-7; N-terminus assumed): the concentration giving a half-maximal response (EC50) in data set [1] worked out at 0.027 nM. Moreover, the “Max ThT signal (%)” value in data set [2] was determined as 7.200%.

In the case of `CC[C@H](C)[C@H](NC(=O)[C@H](CCC(N)=O)NC(=O)[C@H](Cc1c[nH]cn1)NC(=O)[C@H](C)NC(=O)[C@H](CC(C)C)NC(=O)[C@H](CCCNC(=N)N)NC(=O)[C@H](CCC(N)=O)NC(=O)[C@@H](NC(=O)[C@@H](NC(=O)[C@@H]1CSSC[C@H](NC(=O)CN)C(=O)N[C@@H](CCCNC(=N)N)C(=O)N[C@@H]([C@@H](C)O)C(=O)NCC(=O)N[C@@H]([C@@H](C)O)C(=O)N1)[C@@H](C)O)C(C)C)C(=O)N[C@@H](Cc1ccc(O)cc1)C(=O)N[C@@H](CCC(N)=O)C(=O)N[C@@H](Cc1ccccc1)C(=O)N[C@H](C(=O)N[C@@H](CC(=O)O)C(=O)N[C@@H](CCCCN)C(=O)N[C@@H](CC(=O)O)C(=O)N[C@@H](CCCCN)C(=O)N[C@@H](CC(=O)O)C(=O)N[C@@H](CC(N)=O)C(=O)N[C@H](C(=O)N[C@@H](C)C(=O)N1CCC[C@H]1C(=O)N[C@@H](CCCNC(=N)N)C(=O)N[C@@H](CO)C(=O)N[C@@H](CCCCN)C(=O)N[C@H](C(=O)NCC(=O)N1CCC[C@H]1C(=O)N[C@@H](CCC(N)=O)C(=O)NCC(=O)N[C@@H](Cc1ccc(O)cc1)C(N)=O)C(C)C)C(C)C)[C@@H](C)O` [compound 129] (H-GCRTGTCTVQRLAHQIYQFTDKDKDNVAPRSKVGPQGY-NH2; disulfide 2-7), in data set [1], the concentration for a half-maximal effect (EC50) amounted to 0.029 nM. In addition, the “Max ThT signal (%)” value in data set [2] amounted to 1.400%.

Take `CC[C@H](C)[C@H](NC(=O)[C@H](CCC(N)=O)NC(=O)[C@H](Cc1c[nH]cn1)NC(=O)[C@H](C)NC(=O)[C@H](CC(C)C)NC(=O)[C@H](CCCNC(=N)N)NC(=O)[C@H](CCC(N)=O)NC(=O)[C@@H](NC(=O)[C@@H](NC(=O)[C@@H]1CSSC[C@H](NC(=O)CN)C(=O)N[C@@H](CCCNC(=N)N)C(=O)N[C@@H](Cc2ccccc2)C(=O)NCC(=O)N[C@@H]([C@@H](C)O)C(=O)N1)[C@@H](C)O)C(C)C)C(=O)N[C@@H](Cc1ccc(O)cc1)C(=O)N[C@@H](CCC(N)=O)C(=O)N[C@@H](Cc1ccccc1)C(=O)N[C@H](C(=O)N[C@@H](CC(=O)O)C(=O)N[C@@H](CCCCN)C(=O)N[C@@H](CC(=O)O)C(=O)N[C@@H](CCCCN)C(=O)N[C@@H](CC(=O)O)C(=O)N[C@@H](CC(N)=O)C(=O)N[C@H](C(=O)N[C@@H](C)C(=O)N1CCC[C@H]1C(=O)N[C@@H](CCCNC(=N)N)C(=O)N[C@@H](CO)C(=O)N[C@@H](CC(N)=O)C(=O)N[C@H](C(=O)N[C@@H](CO)C(=O)N1CCC[C@H]1C(=O)N[C@@H](CCC(N)=O)C(=O)NCC(=O)N[C@@H](Cc1ccc(O)cc1)C(N)=O)C(C)C)C(C)C)[C@@H](C)O` [compound 131] (H-GCRFGTCTVQRLAHQIYQFTDKDKDNVAPRSNVSPQGY-NH2; disulfide 2-7): the concentration for a half-maximal effect (EC50) in data set [1] is 0.031 nM. For the same compound, the “Max ThT signal (%)” value in data set [2] is listed as 6.800%.
